Legend:
Vero cells = assay: Toxicity testing on Vero cells; settings: for CC50: Vero cells, 24 h post treatment
[1] = Toxicity testing on Vero cells; settings: African green monkey, Vero cells, CC50, Vero cells, 24 h post treatment
SARS-CoV-2 [2] = assay: SARS-CoV-2 virus production in Vero E6 cells (TCID50); type: cell-based; settings: for antiviral activity (conclusion, in words): SARS-CoV-2; for IC50: Severe acute respiratory syndrome coronavirus 2, Vero C1008, TCID50, Vero E6 cells, MOI 10^−3; for virus production (in words): increased drug concentration, dose response
Protocol: (§1) Seeding of cells and treatment with compound of interest were performed with each compound in triplicate at 5 concentrations, including negative and positive controls. Infection with SARS-CoV-2 was performed at one MOI (multiplicity of infection). Viral particles were recovered in the supernatant after incubation and quantification using TCID50 (tissue culture infectious dose 50%) and RT-PCR was performed. Toxicity measurement of compounds was made on separate cell lines. D1: cell seeding on 96 wells plate, Vero E6 cells. Growth conditions: medium DMEM high glucose (Dutsher L0104-500, lot MS008A) D2: dilution of compounds was carried out in a mix of 100% DMSO diluted to 50% in PBS (NACL-2) or in PBS at […] to avoid solubility issues of some compounds. Compounds were tested at 5 concentrations, from 10^−4 M to 10^−8 M by serial tenfold dilutions. Infection with SARS-CoV-2 clinical strain was performed to MOI 10^−3. D3: viral titers were determined by TCID50 method and calculated by the Spearman & Kärber algorithm. RT-qPCR on gene E of SARS-CoV-2 was determined by Taqman One-Step RT-qPCR. Infection process: at T0 infection was performed with SARS-CoV-2 MOI 10^−3 (0.001). At T0+1 h virus was removed and the plates were washed with PBS (2×1 mL), 1 mL medium was then added with compound from 100 μM to 10 nM. A 24 h incubation step was carried out. At T0+25 h, 500 μL of supernatant was recovered and TCID50 processing and RT-qPCR were performed. Following 4 additional days of incubation the endpoint was obtained and TCI D50 reading and calculation was performed.

SARS-CoV-2 [3] = assay: SARS-CoV-2 genome copy number by RT-qPCR on gene E (Vero E6 cells); type: cell-based; settings: for genome copy number (in words): increased drug concentration
Protocol: as §1

in vitro = settings: human

Structure (SMILES) | CC50 (Vero cells) [µM] | CC50 at 24 h [1] [µM] | antiviral activity (conclusion, in words) (SARS-CoV-2 [2]) | IC50 (SARS-CoV-2 [2]) [µM] | virus production (in words) (SARS-CoV-2 [2]) | IC50 times lower than that of NACI-1 (SARS-CoV-2 [2]; virus production IC50) [times] | genome copy number (in words) (SARS-CoV-2 [3]) | CC50 (in vitro) [µM] | CC50 (Vero cells; listed as clitocine) [µM] | toxicity on Vero cells (in words) (Vero cells; depending on the concentration used) | log decrease in viral production (SARS-CoV-2 [2]; at 10 μM) [log] | toxicity observed in virus production test (SARS-CoV-2 [2]; at 100 μM) | IC50 times lower than that of Remdesivir (SARS-CoV-2 [2]; virus production IC50) [times] | IC50 (SARS-CoV-2 [3]; Severe acute respiratory syndrome coronavirus 2, Vero C1008, RT-qPCR on gene E, Vero E6 cells) [µM] | log decrease in copy genome (SARS-CoV-2 [3]; at 10 μM) [log] | toxicity observed in RT-qPCR test (SARS-CoV-2 [3]; at 100 μM)
NC(=O)c1ncn([C@@H]2O[C@H](CO)[C@@H](O)[C@H]2O)c1O [Mizoribine, 1-[(2R,3R,4S,5R)-3,4-dihydroxy-5-(hydroxymethyl)oxolan-2-yl]-5-hydroxy-1H-imidazole-4-carboxamide] | 191 | 191 | Potent antiviral activity | 0.66 | decrease significantly | 3 | does not impact | 850 | – | – | – | – | – | – | – | –
Nc1ncnc(N[C@@H]2O[C@H](CO)[C@@H](O)[C@H]2O)c1[N+](=O)[O-] [Compound 1, (2R,3R,4S,5R)-2-[(6-amino-5-nitropyrimidin-4-yl)amino]-5-(hydroxymethyl)oxolane-3,4-diol] | – | 3.09 | Potent antiviral activity | 0.188 | decrease significantly | – | decrease significantly | 108 | 3.09 | some degree of toxicity | 3 | some toxicity was observed | 5 | 0.176 | ~2 | some toxicity was observed
